{
  "source": "paper PMC10176470",
  "about": "“Engaging a Non-catalytic Cysteine Residue Drives Potent and Selective Inhibition of Caspase-6” (Journal of the American Chemical Society, 2023)",
  "experiment_in_all_cases": "SILAC proteomics / in-gel fluorescence, competition of probe 13-t labeling by 3a",
  "key": {"[1]": {"target": "T1, proteins of HEK293T cells transiently overexpressing caspase-6 (Homo sapiens, UniProt P50990)", "T1 sequence (P50990 1-548)": "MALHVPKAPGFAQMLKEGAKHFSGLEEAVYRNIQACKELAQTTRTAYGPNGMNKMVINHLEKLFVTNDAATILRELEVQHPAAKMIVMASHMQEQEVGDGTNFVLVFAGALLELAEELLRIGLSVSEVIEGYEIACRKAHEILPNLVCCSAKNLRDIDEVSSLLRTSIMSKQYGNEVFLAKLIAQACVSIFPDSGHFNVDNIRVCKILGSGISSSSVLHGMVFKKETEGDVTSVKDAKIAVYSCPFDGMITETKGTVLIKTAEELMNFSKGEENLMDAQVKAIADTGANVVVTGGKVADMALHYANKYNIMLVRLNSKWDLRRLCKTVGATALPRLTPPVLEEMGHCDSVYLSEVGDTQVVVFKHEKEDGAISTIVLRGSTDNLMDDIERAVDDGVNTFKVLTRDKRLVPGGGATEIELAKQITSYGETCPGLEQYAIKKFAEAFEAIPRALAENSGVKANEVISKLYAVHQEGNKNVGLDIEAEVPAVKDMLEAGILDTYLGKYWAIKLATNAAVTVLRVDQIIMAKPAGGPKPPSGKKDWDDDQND", "details": "Comp; protein CCT8 P50990"}, "[2]": {"target": "T2, proteins of HEK293T cells transiently overexpressing caspase-6 (Homo sapiens, UniProt Q9UQ80)", "T2 sequence (Q9UQ80 1-394)": "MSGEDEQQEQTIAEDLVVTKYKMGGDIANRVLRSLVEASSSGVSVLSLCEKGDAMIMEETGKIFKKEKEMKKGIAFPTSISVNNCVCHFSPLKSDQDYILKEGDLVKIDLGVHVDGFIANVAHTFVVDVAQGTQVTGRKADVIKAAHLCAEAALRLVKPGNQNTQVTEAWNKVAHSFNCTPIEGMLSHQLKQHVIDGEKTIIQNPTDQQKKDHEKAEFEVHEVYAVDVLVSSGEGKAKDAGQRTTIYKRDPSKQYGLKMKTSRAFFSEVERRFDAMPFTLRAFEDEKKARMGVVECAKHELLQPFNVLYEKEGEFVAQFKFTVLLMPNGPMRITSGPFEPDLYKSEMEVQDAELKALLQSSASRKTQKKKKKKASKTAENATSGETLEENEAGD", "details": "Comp; protein PA2G4 Q9UQ80"}, "[3]": {"target": "proteins of HEK293T cells transiently overexpressing caspase-6 (Homo sapiens, UniProt P12004)", "details": "Comp; protein PCNA P12004"}, "[4]": {"target": "proteins of HEK293T cells transiently overexpressing caspase-6 (Homo sapiens, UniProt Q13148)", "details": "Comp; protein TARDBP Q13148"}, "[5]": {"target": "proteins of HEK293T cells transiently overexpressing caspase-6 (Homo sapiens, UniProt P11142)", "details": "Comp; protein HSPA8 P11142"}, "[6]": {"target": "proteins of HEK293T cells transiently overexpressing caspase-6 (Homo sapiens, UniProt P60900)", "details": "Comp; protein PSMA6 P60900"}, "[7]": {"target": "proteins of HEK293T cells transiently overexpressing caspase-6 (Homo sapiens, UniProt P06733)", "details": "Comp; protein ENO1 P06733"}, "[8]": {"target": "proteins of HEK293T cells transiently overexpressing caspase-6 (Homo sapiens, UniProt Q9H307)"}, "[9]": {"target": "proteins of HEK293T cells transiently overexpressing caspase-6 (Homo sapiens, UniProt Q15233)", "details": "Comp; protein NONO Q15233"}, "[10]": {"target": "proteins of HEK293T cells transiently overexpressing caspase-6 (Homo sapiens, UniProt Q9NR30)", "details": "Comp; protein DDX21 Q9NR30"}, "[11]": {"target": "proteins of HEK293T cells transiently overexpressing caspase-6 (Homo sapiens, UniProt Q9Y262)"}, "[12]": {"target": "proteins of HEK293T cells transiently overexpressing caspase-6 (Homo sapiens, UniProt P08238)", "details": "Comp; protein HSP90AB1 P08238"}, "[13]": {"target": "T3, proteins of HEK293T cells transiently overexpressing caspase-6 (Homo sapiens, UniProt P12236)", "T3 sequence (P12236 1-298)": "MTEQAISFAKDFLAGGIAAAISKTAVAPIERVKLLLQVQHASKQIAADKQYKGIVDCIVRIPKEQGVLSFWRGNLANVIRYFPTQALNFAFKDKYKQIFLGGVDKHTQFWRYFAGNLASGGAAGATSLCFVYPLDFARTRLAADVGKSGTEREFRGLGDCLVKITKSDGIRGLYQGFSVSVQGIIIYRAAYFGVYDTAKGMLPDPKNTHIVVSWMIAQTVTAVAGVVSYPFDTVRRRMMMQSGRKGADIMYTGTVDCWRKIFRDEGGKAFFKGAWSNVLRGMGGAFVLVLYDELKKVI"}, "[14]": {"details": "protein PNN (Q9H307), Exp Comp, analysis C6, p 0.5000, 2 peptides"}, "[15]": {"details": "protein EIF3L (Q9Y262), Exp Comp, analysis C6, p 0.8438, 6 peptides"}, "[16]": {"details": "protein SLC25A6 (P12236), Exp Comp, analysis C6, p 0.5000, 2 peptides"}},
  "data": [
    {"smiles": "C=CS(=O)(=O)N1C[C@H](C(=O)Nc2ccc(OC(F)(F)F)cc2)C[C@@H](c2ccccc2)C1", "note": "[3a]", "values": [
      {"measurement": "enrich.exp.med", "setting": "[1]", "value": 0.6038},
      {"measurement": "enrich.exp.med", "setting": "[2]", "value": 0.7436},
      {"measurement": "enrich.exp.med", "setting": "[3]", "value": 0.6316},
      {"measurement": "enrich.exp.med", "setting": "[4]", "value": 0.8327},
      {"measurement": "enrich.exp.med", "setting": "[5]", "value": 0.6036},
      {"measurement": "enrich.exp.med", "setting": "[6]", "value": 0.7694},
      {"measurement": "enrich.exp.med", "setting": "[7]", "value": 0.6321},
      {"measurement": "enrich.exp.med", "setting": "[8]; Comp, protein PNN Q9H307", "value": 1.018},
      {"measurement": "enrich.exp.med.lin", "setting": "[8]; [14]", "value": 2.025},
      {"measurement": "enrich.exp.med.log2", "setting": "[8]; [14]", "value": 1.018},
      {"measurement": "enrich.exp.med", "setting": "[9]", "value": 0.6126},
      {"measurement": "enrich.exp.med", "setting": "[10]", "value": 0.6506},
      {"measurement": "enrich.exp.med", "setting": "[11]; Comp, protein EIF3L Q9Y262", "value": 1.059},
      {"measurement": "enrich.exp.med.lin", "setting": "[11]; [15]", "value": 2.083},
      {"measurement": "enrich.exp.med.log2", "setting": "[11]; [15]", "value": 1.059},
      {"measurement": "enrich.exp.med", "setting": "[12]", "value": 0.6024},
      {"measurement": "enrich.exp.med", "setting": "[13]; Comp, protein SLC25A6 P12236", "value": 3.139},
      {"measurement": "enrich.exp.med.lin", "setting": "[13]; [16]", "value": 8.81},
      {"measurement": "enrich.exp.med.log2", "setting": "[13]; [16]", "value": 3.139}
    ]}
  ]
}
